Two molecules from patent US20080227638A1, “Use of abscisic acid to enhance growth control” (priority 2007, published 2008) can be followed below.

Common to all, as to assay type: in vivo
In one assay the test system is Tall fescue, cv K-31. Put plainly: Tall fescue cv K-31 height, ABA and trinexapac-ethyl (Example 6). On the procedure: (§1) Greenhouse studies were conducted at the Research Farm of Valent BioSciences Corporation (Long Grove, Ill.). Grasses were grown in pots (18 cm in diameter and 18 cm in height) filled with Promix BX (available from Premier Horticulture Inc. Quakertown, Pa.). Grass was irrigated daily by an overhead irrigation system. The irrigation system was set up with multiple Tornado Mist Spray Heads (10 GPH at 40 PSI-Wetted diameter, NDS/Raindrip, Woodland Hills, Calif.). Spray heads were 1-meter apart from each other and 75 cm above grass canopy. Grass was cut with a scissor at 2.5 cm height and fertilizer (1 g/L all purpose fertilizer 20-20-20, available from The Scotts Company, Marysville, Ohio) was applied once per week.
(§2) Chemical solutions were prepared with distilled water. Tween 20 (0.05% v/v) was used as an, adjuvant. Both trinexapac-ethyl (commercial product Primo Maxx, 11.3% active ingredient) and paclobutrazol (commercial product Trimmit 2SC, 22.3% active ingredient) were purchased from Syngenta Crop Protection Inc. (Greensboro, N.C.). Uniconazole-P (commercial product Sumagic, 0.55% active ingredient) was obtained from Valent U.S.A. Corporation (Walnut Creek, Calif.).
(§3) When treated with paclobutrazol or uniconazole-P, turfgrass received irrigation within 24 hours after application to flush chemicals to the root zone. After treatment, turfgrasses were arranged in a randomized complete block experimental design. Turfgrass quality, turfgrass height or clip fresh weight was measured on assigned dates. Turfgrass quality was visually rated on a 0-9 scale based on the color, uniformity and density of the grass with 0 as the worst and 9 as the best. Turfgrass height was measured as the distance between canopy surface and soil. Clips were collected from each plot; all plots were cut to a uniform height.
(§4) All experiments were randomized complete block experimental design. Data were analyzed by analysis of variance. Duncan's new multiple range tests at α=0.05 were used for mean separations.

Assay [1] has as its system Kentucky bluegrass cv Midnight. Nature of the assay: Kentucky bluegrass cv Midnight height, ABA and trinexapac-ethyl (Example 6). The following applies: 7 days after treatment. The procedure:
as §1
Chemical solutions were prepared with distilled water. Tween 20 (0.05% v/v) was used as an, adjuvant. […]
When treated with paclobutrazol or uniconazole-P, turfgrass received irrigation within 24 hours after application to flush chemicals to the root zone. […] Turfgrass quality, turfgrass height or clip fresh weight was measured on assigned dates. […] Turfgrass height was measured as the distance between canopy surface and soil. […]
All experiments were randomized complete block experimental design. Data were analyzed by analysis of variance. […]

Assay [2] relates to Kentucky bluegrass. Nature of the assay: Greenhouse Kentucky bluegrass height, ABA and uniconazole-P (Example 3). To be noted: 200 ppm ABA. On the procedure:
as §1, §2, §3, §4
Kentucky bluegrass sod (unknown variety) was purchased from Deak sod farms, Inc. (Union Grove, Wis.). Grass was grown in the greenhouse in pots (n=6 pots per treatment) for establishment before treatment. […] Tween 20 (0.05% w/v) was included as an adjuvant. The turfgrass was cut every 7 days.

The test system of assay [3] is Kentucky bluegrass. Put plainly: Greenhouse Kentucky bluegrass height and quality, ABA and paclobutrazol (Example 2). To be noted: 200 ppm ABA. On the procedure: as §1, §2, §3, §4
Kentucky bluegrass sod (unknown variety) was purchased from Deak sod farms, Inc. (Union Grove, Wis.). Grass was grown in the greenhouse in pots (n=6 pots per treatment) for establishment before treatment. […] Turfgrass quality was evaluated at 7 days after treatment, and turfgrass height was measured at 7 and 28 days after treatment. Tween 20 (0.05% w/v) was included as an adjuvant. The turfgrass canopy was cut every 7 days during the experimental period.

For a further assay, the system named is Bermudagrass. Put plainly: Bermudagrass clip weight, ABA and uniconazole-P (Example 7). The following applies: 200 ppm ABA; 7 days after treatment. The procedure: as §2, §3, §4
For the next assay, the system named is creeping bentgrass. Nature of the assay: Golf course green creeping bentgrass height, clip weight and quality, ABA and uniconazole-P (Example 5). The following applies: 200 ppm ABA. On the procedure: Field studies were conducted at the nursery green or the practice green at Countryside golf course (Mundelein, Ill.). Both greens were sand based and growing Penncross creeping bentgrass. Grass was managed with typical Illinois golf course management practices.
as §2, §3, §4
Tween 20 (0.05% w/v) was included as an adjuvant.

As for `CCOC(=O)C1CC(=O)C(=C(O)C2CC2)C(=O)C1` (stereo not drawn) [trinexapac-ethyl], the Turfgrass height is reported as 11.8 cm in the assay on Tall fescue, cv K-31 (80 ppm trinexapac-ethyl, 7 days after treatment); 19.8 cm in the assay with Tall fescue, cv K-31 (80 ppm trinexapac-ethyl, 21 days after treatment); 9.7 cm in the assay on Tall fescue, cv K-31 (160 ppm trinexapac-ethyl, 7 days after treatment); 20.1 cm in the assay with Tall fescue, cv K-31 (160 ppm trinexapac-ethyl, 21 days after treatment); 7.6 cm in assay [1] (80 ppm trinexapac-ethyl); 6.7 cm in assay [1] (160 ppm trinexapac-ethyl).
As for S-abscisic acid [ABA], the Turfgrass height in the assay with Kentucky bluegrass [2] (7 days after treatment) is on record as 12.3 cm; with Kentucky bluegrass [2] (42 days after treatment), 9.4 cm; in the assay with Kentucky bluegrass [3] (7 days after treatment) it was 11.7 cm; in the assay on Kentucky bluegrass [3] (28 days after treatment), 9.7 cm; in the assay with creeping bentgrass (7 days after treatment), 5.0 cm; in the assay with creeping bentgrass (49 days after treatment), 4.6 cm. Further, the Clip weight in the assay with Bermudagrass is on record as 1.8 g; in the assay with creeping bentgrass (7 days after treatment), 2.0 g; in the assay with creeping bentgrass (49 days after treatment) it was 2.7 g.
